Data published in article PMC11754895 (Nature Communications, 2025).

Molecular target: T1, OleTKM (Kocuria marina, UniProt A0A0B0D9P4)
T1 sequence (A0A0B0D9P4 1-428): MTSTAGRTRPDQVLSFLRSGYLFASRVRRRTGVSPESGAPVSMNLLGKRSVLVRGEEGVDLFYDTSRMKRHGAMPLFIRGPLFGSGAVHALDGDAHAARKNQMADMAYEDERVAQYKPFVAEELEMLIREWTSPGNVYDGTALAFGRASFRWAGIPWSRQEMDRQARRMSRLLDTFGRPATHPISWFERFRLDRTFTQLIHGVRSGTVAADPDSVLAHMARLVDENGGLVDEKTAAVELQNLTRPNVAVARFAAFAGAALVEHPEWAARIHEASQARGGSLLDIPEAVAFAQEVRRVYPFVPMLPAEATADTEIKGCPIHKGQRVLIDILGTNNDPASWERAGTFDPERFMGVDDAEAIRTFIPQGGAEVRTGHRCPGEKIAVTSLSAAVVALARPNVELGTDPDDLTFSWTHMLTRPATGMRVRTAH
Assay: inhibition of myristic acid turnover
Assay type: biochemical
Settings: even mixture of C14:0 and C18:1; competitive

**Q.** For `CCCCCCCC/C=C\CCCCCCCC(=O)O` [oleic acid], which “inhibition of myristic acid turnover” value is on record?
**A.** The value was “presence of oleic acid impaired the activity of OleTKM against myristic acid (Fig. 1d)”.
